According to US9988420B2, “Cytotoxic peptides and conjugates thereof” (priority 2013, dated 2018):
Where two headings read alike, the source gives them in different places. Non-standard residues stand in square brackets, D forms with d. Residues, ends and D or L forms follow the SMILES beside them. *: point of attachment. Dolaproine = CO[C@@H]([C@@H]1CCCN1)[C@@H](C)C(=O)O; Dil = CC[C@H](C)[C@H](NC)[C@@H](CC(=O)O)OC; X2 = CN1[C@@H]2CC[C@@H](C2)[C@H]1C(=O)*; Phe(ol) = N[C@H](CO)Cc1ccccc1

Tests used:
HCC1954 cells = assay: In vitro cell killing assay of payloads (cell proliferation, Cell-Titer-Glo); assay type: cell-based; conditions: Homo sapiens, 120 h, HCC1954 cells, Cell-Titer-Glo after five days, read-out: In vitro cell killing (IC50 (nM)) HCC1954
SKBR3 cells = assay: as above; assay type: cell-based; conditions: Homo sapiens, SK-BR-3, 120 h, Cell-Titer-Glo after five days
Procedure: (§1) For evaluation of the cell killing potency of the cytotoxic peptides of Formula (I) in vitro, cell proliferation assays were performed in parallel with 8 cell lines: MDA-MB231 clone 16, clone 40, JimT1, HCC1954, H526, KU812, CMK11-5 cells and Jurkat cells. In addition, in vitro, cell proliferation assays were performed using 3 other cell lines: A375, SKBR3 and NCI-N87. All the cell lines are described in more detail in Example 106 and were also used to assess the in vitro potency of immunoconjugates of the invention. The cell proliferation assays were conducted with Cell-Titer-Glo™ (Promega) five days after cells were incubated with various concentrations of ADCs (Riss et al., (2004) Assay Drug Dev Technol. 2:51-62).

A375 cells = assay: as above; assay type: cell-based; conditions: Homo sapiens, A-375, 120 h, Cell-Titer-Glo after five days
Procedure: as §1

NCI-N87 cells = assay: as above; assay type: cell-based; conditions: Homo sapiens, 120 h, Cell-Titer-Glo after five days
Procedure: as §1

JimT1 cells = assay: as above; assay type: cell-based; conditions: Homo sapiens, JIMT-1, 120 h, JimT1 cells, Cell-Titer-Glo after five days, read-out: In vitro cell killing (IC50 (nM)) JimT1
H526 cells = assay: as above; assay type: cell-based; conditions: Homo sapiens, 120 h, NCI-H526 cells, Cell-Titer-Glo after five days, read-out: In vitro cell killing (IC50 (nM)) NCI-H526
CMK11-5 cells = assay: as above; assay type: cell-based; conditions: Homo sapiens, 120 h; CMK-11-5 cells; Cell-Titer-Glo after five days
MDA-MB231 clone 16 cells = assay: as above; assay type: cell-based; conditions: Homo sapiens, 120 h; MDA-MB-231 clone 16 cells; Cell-Titer-Glo after five days
Jurkat cells = assay: as above; assay type: cell-based; conditions: Homo sapiens, 120 h, Cell-Titer-Glo after five days
KU812 cells = assay: as above; assay type: cell-based; conditions: Homo sapiens, 120 h, Cell-Titer-Glo after five days
MDA-MB231 clone 40 cells = assay: as above; assay type: cell-based; conditions: Homo sapiens, 120 h; MDA-MB-231 clone 40 cells; Cell-Titer-Glo after five days
[1] = acidic condition

Compound	IC50 (HCC1954 cells; Table 2b) [nM]	IC50 (SKBR3 cells) [nM]	IC50 (A375 cells) [nM]	IC50 (NCI-N87 cells) [nM]	IC50 (JimT1 cells; Table 2b) [nM]	IC50 (H526 cells; Table 2b) [nM]	IC50 (HCC1954 cells; Table 2a) [nM]	IC50 (CMK11-5 cells) [nM]	IC50 (MDA-MB231 clone 16 cells) [nM]	IC50 (Jurkat cells) [nM]	IC50 (KU812 cells) [nM]	IC50 (JimT1 cells; Table 2a) [nM]	IC50 (MDA-MB231 clone 40 cells) [nM]	IC50 (H526 cells; Table 2a) [nM]	hydrolysis of the ester [1]
CC[C@H](C)[C@@H]([C@@H](CC(=O)N1CCC[C@H]1[C@H](OC)[C@@H](C)C(=O)N[C@@H](Cc1ccccc1)CS(N)(=O)=O)OC)N(C)C(=O)[C@@H](NC(=O)[C@@H]1[C@H]2CC[C@H](C2)N1C)C(C)C [Compound 55, (1R,3S,4S)-N-((S)-1-(((3R,4S,5S)-3-methoxy-1-((S)-2-((1R,2R)-1-methoxy-2-methyl-3-oxo-3-(((S)-1-phenyl-3-sulfamoylpropan-2-yl)amino)propyl)pyrrolidin-1-yl)-5-methyl-1-oxoheptan-4-yl)(methyl)amino)-3-methyl-1-oxobutan-2-yl)-2-methyl-2-azabicyclo[2.2.1]heptane-3-carboxamide]	0.124	0.21	2.75	0.643	0.751	0.364	–	–	–	–	–	–	–	–	–
CC[C@H](C)[C@@H]([C@@H](CC(=O)N1CCC[C@H]1[C@H](OC)[C@@H](C)C(=O)N[C@@H](Cc1ccccc1)C(=O)NS(=O)(=O)CCCN=[N+]=[N-])OC)N(C)C(=O)[C@@H](NC(=O)[C@@H]1[C@H]2CC[C@H](C2)N1C)C(C)C [Compound 46, (1R,3S,4S)-N-((S)-1-(((3R,4S,5S)-1-((S)-2-((1R,2R)-3-(((S)-N-1-(3-Azidopropylsulfonamido)-1-oxo-3-phenylpropan-2-yl)amino)-1-methoxy-2-methyl-3-oxopropyl)pyrrolidin-1-yl)-3-methoxy-5-methyl-1-oxoheptan-4-yl)(methyl)amino)-3-methyl-1-oxobutan-2-yl)-2-methyl-2-azabicyclo[2.2.1]heptane-3-carboxamide]	–	–	–	–	–	–	2.3	10.4	8.1	6.1	8.4	14.2	11.7	29.5	–
CC[C@H](C)[C@@H]([C@@H](CC(=O)N1CCC[C@H]1[C@H](OC)[C@@H](C)C(=O)N[C@H](CO)Cc1ccccc1)OC)N(C)C(=O)[C@@H](NC(=O)[C@@H]1[C@H]2CC[C@H](C2)N1C)C(C)C [Compound 51, (1R,3S,4S)-N-((S)-1-(((3R,4S,5S)-1-((S)-2-((1R,2R)-3-(((S)-1-Hydroxy-3-phenylpropan-2-yl)amino)-1-methoxy-2-methyl-3-oxopropyl)pyrrolidin-1-yl)-3-methoxy-5-methyl-1-oxoheptan-4-yl)(methyl)amino)-3-methyl-1-oxobutan-2-yl)-2-methyl-2-azabicyclo[2.2.1]heptane-3-carboxamide] (X2-V[Dil][Dolaproine][Phe(ol)])	0.028	0.035	0.154	0.053	0.081	0.184	–	–	–	–	–	–	–	–	–
CC[C@H](C)[C@@H]([C@@H](CC(=O)N1CCC[C@H]1[C@H](OC)[C@@H](C)C(=O)N[C@H](C)[C@@H](O)c1ccccc1)OC)N(C)C(=O)[C@@H](NC(=O)[C@H]1N[C@@H]2CC[C@H]1C2)C(C)C [Compound 3, (1R,3S,4S)-N-((S)-1-(((3R,4S,5S)-1-((S)-2-((1R,2R)-3-(((1S,2R)-1-Hydroxy-1-phenylpropan-2-yl)amino)-1-methoxy-2-methyl-3-oxopropyl)pyrrolidin-1-yl)-3-methoxy-5-methyl-1-oxoheptan-4-yl)(methyl)amino)-3-methyl-1-oxobutan-2-yl)-2-azabicyclo[2.2.1]heptane-3-carboxamide]	–	–	–	–	–	–	10.8	14.7	12.7	3.01	6.78	42.1	23.9	22	–
CCCCOP(=O)(O)[C@H](Cc1ccccc1)NC(=O)[C@H](C)[C@@H](OC)[C@@H]1CCCN1C(=O)C[C@@H](OC)[C@H]([C@@H](C)CC)N(C)C(=O)[C@@H](NC(=O)[C@@H]1[C@H]2CC[C@H](C2)N1C(=O)CCCCCN1C(=O)C=CC1=O)C(C)C [Compound 29, Butyl hydrogen ((R)-1-((2R,3R)-3-((S)-1-((3R,4S,5S)-4-((S)-2-((1R,3S,4S)-2-(6-(2,5-dioxo-2,5-dihydro-1H-pyrrol-1-yl)hexanoyl)-2-azabicyclo[2.2.1]heptane-3-carboxamido)-N,3-dimethylbutanamido)-3-methoxy-5-methylheptanoyl)pyrrolidin-2-yl)-3-methoxy-2-methylpropanamido)-2-phenylethyl)phosphonate]	–	–	–	–	–	–	–	–	–	–	–	–	–	–	prone to hydrolysis in acidic condition
